#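 These data come from cells grown in 96-well plates and exposed to compound for 48 hours at five concentrations. GI50 is the concentration that inhibits growth by half. TGI is the concentration that stops growth completely.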 *1 amine or outer side, *2 acyl side, *3 side chain or, on linkers, in order; H or OH if unused. Where a SMILES comes first, the peptide text is derived from it. [ ]: non-standard residue; d: D form. The star is where a group is joined. ξ: configuration not given here. X15 = CCN(CC)c1ccc2cc(N*)c(=O)oc2c1; dIva = CC[C@@](C)(N)C(=O)O; X14 = O=C(OCCN[*:1])[*:2]; Aib = CC(C)(N)C(=O)O; ξP = O=C(O)C1CCCN1; βAla = NCCC(=O)O
# Experiments:
# Experiment in all cases: NCI-60 cell line screen, 48 h
# IGROV1 ovarian = tested on: IGROV1 ovarian
# A498 renal = tested on: A498 renal
# OVCAR-4 ovarian = tested on: OVCAR-4 ovarian
# TK-10 renal = tested on: TK-10 renal
# MOLT-4 leukemia = tested on: MOLT-4 leukemia
# OVCAR-5 ovarian = tested on: OVCAR-5 ovarian
# CAKI-1 renal = tested on: CAKI-1 renal
# SK-MEL-2 melanoma = tested on: SK-MEL-2 melanoma
# COLO 205 colon = tested on: COLO 205 colon
# HCC-2998 colon = tested on: HCC-2998 colon
SMILES,GI50 (IGROV1 ovarian) [µM],TGI (IGROV1 ovarian) [µM],GI50 (A498 renal) [µM],TGI (A498 renal) [µM],GI50 (OVCAR-4 ovarian) [µM],TGI (OVCAR-4 ovarian) [µM],GI50 (TK-10 renal) [µM],TGI (TK-10 renal) [µM],GI50 (MOLT-4 leukemia) [µM],TGI (MOLT-4 leukemia) [µM],GI50 (OVCAR-5 ovarian) [µM],TGI (OVCAR-5 ovarian) [µM],GI50 (CAKI-1 renal) [µM],TGI (CAKI-1 renal) [µM],GI50 (SK-MEL-2 melanoma) [µM],TGI (SK-MEL-2 melanoma) [µM],GI50 (COLO 205 colon) [µM],TGI (COLO 205 colon) [µM],GI50 (HCC-2998 colon) [µM],TGI (HCC-2998 colon) [µM]
Cn1ccnc1C(=O)/C=C/c1ccc(CC(=O)Nc2ccc(C(F)(F)F)cc2)cc1,4.37,12.9,4.17,11.8,3.1,> 16.7,5,15.3,1.17,8.06,2.45,5.21,3.54,9.53,4.95,11.3,3.17,6.17,2.87,5.44
N=C(N)c1ccc(COc2ccccc2OCc2ccc(C(=N)N)cc2)cc1,61.6,> 100,,,92,> 100,34.3,> 100,49.6,> 100,> 100,> 100,2.11,29.8,> 100,> 100,> 100,> 100,86.8,> 100
CS/C(C)=N/OC(=O)NCCCCNc1ccc(N=[N+]=[N-])cc1,,> 100,,> 100,,> 100,,> 100,,> 100,,> 100,,> 100,,,,> 100,,56.1
COc1cccc2nc3cc(C)c(C)cc3nc12,,> 100,,> 100,,> 100,,> 100,,> 100,,> 100,,> 100,,> 100,,> 100,,> 100
CCOC(=O)c1nc(-c2ccccc2)oc1OCC,,> 100,,,,> 100,,> 100,,> 100,,,,,,,,> 100,,> 100
CC(C)(C#N)c1cc(C(=O)Nc2cc(Nc3ncccc3-c3ncnc4nc[nH]c34)ccc2F)cc(C(F)(F)F)c1,0.521,> 2.59,0.126,0.844,1.3,> 2.93,,> 4.17,,> 6.2,0.224,> 2.86,1.14,> 3.55,0.315,> 2.08,0.131,,0.372,
O=C(Nc1nc(=S)c2c(ncn2CCO)[nH]1)c1ccccc1,,> 100,,> 100,,> 100,,> 100,,,,> 100,,> 100,,> 100,,> 100,,
CC(=O)Nc1ccc(/C=C/C(=O)c2sc(-c3nc(C)c(C(=O)/C=C/c4ccc(NC(C)=O)cc4)s3)nc2C)cc1,,> 100,,,,> 100,,> 100,,> 100,,> 100,,> 100,,> 100,,> 100,,> 100
COC(=O)C1=C(OC(=O)c2ccc(Cl)cc2)C(C(=O)OC)[C@@]2(O)[C@@H](C(=O)OC)C(c3ccccc3Cl)C[C@@H]1[C@@H]2C(=O)OC (stereo partly specified),,,2.81,13.2,,,8,> 100,3.54,34.6,55.3,> 100,2.09,7.35,2.51,5.94,23.3,> 100,14.3,> 100
CCOC(=O)c1nc(Nc2ccc(Cl)cc2)c2ccccc2n1,10.7,26,,,11.3,47.9,8.11,19.3,,,10.7,22.3,7.73,16.3,13.2,30.4,9.8,20.6,8.46,15.6
C/C=C/[C@@H]1OC(=O)C2=C[C@@H](O)[C@@H](/C=C/C)O[C@H]21,7.62,> 56,,,6.96,27.8,1.96,7.04,1.73,> 19.7,13.6,35,1.71,3.81,23.5,> 58.6,2.2,6.9,28.3,55
C=CC1C(OC2OC(CO)C(O)C(O)C2O)OC=C(C(=O)OC)C1CC=O (stereo unspecified),,> 100,,> 100,,> 100,,,,> 100,,,,,,> 100,,> 100,,
C=CCNC(=O)NCCCC(NC(C)=O)C(=O)NCc1ccccc1 (stereo unspecified),,> 100,,> 100,,> 100,,> 100,,> 100,,> 100,,> 100,,> 100,,> 100,,
CC1(C)CC[C@]2(C(=O)N3CCOCC3)CC[C@]3(C)C(=CC[C@@H]4[C@@]5(C)C/C(=C/c6ccncc6)C(=O)C(C)(C)[C@@H]5CC[C@]43C)[C@@H]2C1,3.09,> 100,1.83,4.96,2.34,> 100,6.46,> 100,0.787,> 100,2.27,9.45,1.07,> 100,2.33,7.27,,,1.66,7.82
COC(=O)c1cc(-c2cccn2C)c2c(c1C(=O)OC)c1ccccc1n2C,,> 100,,,,> 100,,> 100,,29.3,,,,,,> 100,,> 100,,> 100
CCN(CC)c1ccc2cc(NC(=O)OCCNC(=O)CCNC(=O)[C@H](CC(C)C)NC(=O)C(C)(C)NC(=O)C(C)(C)NC(=O)[C@H](CC(C)C)NC(=O)CCNC(=O)C(C)(C)NC(=O)[C@H](CC(C)C)NC(=O)CCNC(=O)[C@@](C)(CC)NC(=O)[C@H](C)NC(=O)CCNC(=O)C(C)(C)NC(=O)[C@H](C)NC(=O)[C@@H]3CCCN3C(=O)[C@@](C)(CC)NC(=O)[C@H](Cc3ccccc3)NC(=O)C3CCCN3C(=O)C(C)(C)NC(=O)C3CCCN3C(=O)C(C)(C)NC(C)=O)c(=O)oc2c1 (stereo partly specified) (Ac-[Aib][ξP][Aib][ξP]F[dIva]PA[Aib][βAla]A[dIva][βAla]L[Aib][βAla]L[Aib][Aib]L[βAla][X14]-X15),,,0.00291,0.0265,0.00347,0.0439,0.0142,0.079,0.00399,0.0184,0.00506,0.116,0.156,0.304,0.00266,0.00665,0.00237,0.006,0.00477,0.127
Clc1nc(Cl)c(-c2ccccc2)c(Cl)n1,,14,,30.1,,6.55,,22.2,,> 100,,9.88,,3.33,,,,3.6,,5.32

SMILES,GI50 (IGROV1 ovarian) [µM],TGI (IGROV1 ovarian) [µM],GI50 (A498 renal) [µM],TGI (A498 renal) [µM],GI50 (OVCAR-4 ovarian) [µM],TGI (OVCAR-4 ovarian) [µM],GI50 (TK-10 renal) [µM],TGI (TK-10 renal) [µM],GI50 (MOLT-4 leukemia) [µM],TGI (MOLT-4 leukemia) [µM],GI50 (OVCAR-5 ovarian) [µM],TGI (OVCAR-5 ovarian) [µM],GI50 (CAKI-1 renal) [µM],TGI (CAKI-1 renal) [µM],GI50 (SK-MEL-2 melanoma) [µM],TGI (SK-MEL-2 melanoma) [µM],GI50 (COLO 205 colon) [µM],TGI (COLO 205 colon) [µM],GI50 (HCC-2998 colon) [µM],TGI (HCC-2998 colon) [µM]
Nc1c(C(=O)Nc2ccccc2)sc2nc3c(cc12)CN(Cc1ccccc1)CC3,37.8,> 100,,,1.97,23.1,4.09,54.7,31.3,> 100,> 100,> 100,19.7,> 100,20.3,> 100,24,> 100,76.1,> 100
CCCCCCCOc1c(OC)cc(C2CC(=O)Nc3c2c(C)nn3-c2nc3ccccc3[nH]2)cc1OC (stereo unspecified),2.74,10.1,0.881,3.9,,,3.12,> 100,2.8,7.72,4.39,> 100,1.92,4.25,3.28,12.6,4.34,> 100,74.1,> 100
CCCOc1nc(SCCC)nc2c1cnn2-c1ccccc1,> 100,> 100,> 100,> 100,> 100,> 100,,,> 100,> 100,> 100,> 100,68.2,> 100,,,> 100,> 100,> 100,> 100
CCC(/C=C/c1ccccc1)=N\Nc1ccc(Cl)c(Cl)c1,,37.5,,,,,,> 100,,> 100,,> 100,,> 100,,40.9,,> 100,,65
O=C(CCc1cc(-c2ccccc2)nc(=S)[nH]1)Nc1ccccc1[N+](=O)[O-],,> 100,,> 100,,,,> 100,,> 100,,> 100,,> 100,,> 100,,> 100,,> 100
CCOc1ccccc1/C=N\N=C(\N)N/N=C/c1ccccc1OCC,4.76,> 100,2.42,> 100,3.68,> 100,6.16,> 100,3.33,> 100,,,4.12,> 100,1.26,> 100,,,,
Cc1cn2c(/C=N/Nc3ccccn3)c(-c3ccc(Cl)c([N+](=O)[O-])c3)nc2s1,5.62,21.8,,,,,15.3,47.3,,,11.8,39.5,39,> 50,21.2,> 50,> 50,> 50,> 50,> 50
Nc1cc(N)c2nc(-c3ccccc3)c(NCc3ccc(F)cc3)nc2c1,3.11,> 100,16.8,31,1.69,8.08,5.83,19.8,> 100,> 100,2.62,7.61,15.3,37.1,5.21,> 100,2.53,6.18,,
C=C1CCC2[C@@H](CCC3[C@]2(C)CCC[C@]3(C)C(=O)OC)C1CCO (stereo partly specified),,29.6,,30.6,,26.6,,34.1,,17.9,,33.2,,24.9,,36.6,,27.9,,
C=CCC(OCCOCC)c1cc(OCCOCC)ccc1OC (stereo unspecified),,> 100,,,,> 100,,> 100,,> 100,,> 100,,> 100,,> 100,,> 100,,> 100
C/C=C/C=C/CCCCCCCCCCCCCC1(OC)C=CC(CC(=O)OC)OO1 (stereo unspecified),0.509,1.03,,,1.15,2.48,2.26,4.81,7.97,33.8,,,1.6,3.44,,39,1.76,3.19,3.5,9.99
C=C1CCc2occ(C)c2C2C1C1=C(CC(C)C1=O)C1OC12C (stereo unspecified),,> 100,,> 100,,> 100,,> 100,,> 100,,> 100,,,,> 100,,> 100,,> 100
COC(=O)C1=C(O)c2cc3c(cc2[C@H](c2cc(OC)c(OC)c(OC)c2)C1C(=O)OC)OCO3 (stereo partly specified),,> 100,,> 100,,83,,89.5,,> 100,,> 100,,89.6,,,,45.7,,> 100
CCCC(Sc1ccccc1)P(=O)(c1ccccc1)c1ccccc1 (stereo unspecified),,,,> 100,,> 100,,> 100,,52.2,,,,> 100,,,,> 100,,
C[C@@H](NC1CCC[C@H]1O)c1ccccc1 (stereo partly specified),,> 100,,,,> 100,,> 100,,> 100,,> 100,,> 100,,> 100,,> 100,,> 100
CCN(CC)c1ccc(C(=N)c2ccc(N(C)C)cc2)cc1,0.949,13,1.17,6.32,2.75,> 39.5,2.41,8.02,1.17,4.55,2.04,6.78,0.246,7.73,,,0.197,3.06,1.85,5.69
O=C1c2ccccc2CC1C1(O)C(=O)Nc2ccccc21 (stereo unspecified),,> 100,,> 100,,> 100,,> 100,,> 100,,> 100,,> 100,,> 100,,> 100,,

# Reference: PubChem BioAssay (NCI)
